Earlier results as cited in patent EP0398588A1, “Macrolide antibiotics” (ELI LILLY AND COMPANY, priority 1989, dated 1990).

Tested on: rats
Settings: rat, in vivo, po

Question: With O=C1C[C@@H]2OCC=C3CN4CC[C@]56c7ccccc7N1[C@H]5[C@H]2[C@H]3C[C@H]46 [strychnine] as the compound, how does the MLD read?
Answer: 5 mg/kg
